Experiment [1] deals with Candida spp. Description: Compound screening: Candida proliferation (OD600, 24 h), strain panel. It is filed as cell-based. Particulars: YNB −iron. How it is done:
For experiments, yeast cells were routinely cultured in YPD media and incubated at 30°C overnight. The cultures were refreshed the next day for 2–3 h in YNB −iron (0.69% yeast nitrogen base without amino acids or iron, with 2% dextrose) media, unless stated, at the same temperature. After incubation, the optical density (OD600) of the cell cultures was measured and adjusted to 0.15.
The collismycin compounds were provided by EntreChem (Spain) at stock solutions of 20 mM in DMSO and stored at −20°C. For serial dilutions of the compounds in clear 96-well plates, intermediate stock concentrations of 100 µM of compound (100 µL for each technical replicate) were prepared in YNB −iron media unless otherwise specified, and 1:1 serial dilutions were performed using a multi-channel pipette. Fifty microliters of cell culture (OD600 = 0.15) were added to the wells containing the compounds, for a total volume of 150 µL. The final concentrations in the wells (with three technical replicates) were equivalent to 0.5, 1, 2.1, 4.2, 8.4, 16.7, 33.3, and 66.6 µM. The OD600 of each well was quantified, and the plates were incubated inside plastic bags (to prevent evaporation) at 30°C for 24 h, after which the final OD600 was measured. The EC50 was calculated using the four-parameter log logistic function with the drc package in R ([57]).

Experiment [2] has as its system C. glabrata cells. The experiment in a line: CellTiter-Glo assay in Candida (relative ATP levels). It is filed as cell-based, Candida glabrata. Particulars: 0.625, 2.5, 10 µM; 1, 3, 6, 24 h. How it is done:
The samples were incubated for 24 h at 30°C and then measured for OD600. Equal number of cells were harvested in each time point according to an OD600 of 0.1–0.4 and then centrifuged at 7000 rpm for 5 minutes to remove the supernatant. The cell pellets were resuspended in 100-µL YNB −iron and then transferred to a 96-well plate. Finally, the samples were treated with 100-µL CellTiter-Glo and then measured for luminescence using a plate reader.
In general terms: Cellular ATP, detected with luciferase, serves as a proxy for viable cell number.

Experiment [3] deals with C. glabrata WT (10028) cells. The experiment in a line: XTT metabolic assay. It is filed as cell-based, Candida glabrata. Particulars: 0.625, 2.5, 10 µM; 6 and 24 h. (Tetrazolium assays rely on reduction of a dye to a coloured formazan, in cell work by metabolically active cells.)
Experiment [4] has as its system C. glabrata WT (JEY10028) cells. The experiment in a line: Mitochondrial staining with MitoTracker. Particulars: 6 h and 24 h, vs DMSO. It is filed as cell-based, Candida glabrata.
Experiment [5] deals with C. albicans WT. Particulars: Candida albicans, 24 h, read-out: C. albicans WT Inhibition (%).

The values below come from article PMC10845951, “Characterization of a selective, iron-chelating antifungal compound that disrupts fungal metabolism and synergizes with fluconazole” (Microbiology Spectrum, 2024).

As to `c1ccc(-c2cccc(-c3ccccn3)n2)nc1` [2,2′:6′,2′′-terpyridine], the “inhibition of growth of Candida spp. compared to ColA” value in experiment [1] was “more potently than ColA”. The “relative ATP levels (luminescence)” value in experiment [2] is “concentration- and time-dependent reduction in luminescence”. For the same compound, in experiment [3], the “reduction of XTT (mitochondrial activity)” value is “significantly inhibited the reduction of XTT”. The “MitoTracker Red CMXRos fluorescence” value in experiment [4] is reported as “lower fluorescence intensities”. In addition, in experiment [5], the inhibition (commonly the relative decrease from the control value, in per cent) at 1 µM was -6.82%; the inhibition at 2 µM was -0.43%; the inhibition at 3 µM was found to be 1.52%; the inhibition at 4 µM was 7.25%. In experiment [5], the inhibition at 5 µM came to 9.76% and the inhibition at 10 µM is 79.1%.
